Results reported in PubChem BioAssay (NCI).
“And” between values parts separate entries of the source, which are not always exact repeats. Identical values can stand only once.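 Growth conditions: 96-well plates. Treatment: test compound, 48 hours, 5 concentrations. Analysis: linear interpolation between bracketing concentrations; unreached endpoints set to highest concentration. GI50: concentration for 50% inhibition of growth. TGI marks complete inhibition of growth.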

How the values were obtained:
Test in all cases: NCI tumour cell line growth inhibition, 48 h
MDA-MB-231 breast = test system: MDA-MB-231 breast
LOX IMVI melanoma = test system: LOX IMVI melanoma
SW-620 colon = test system: SW-620 colon
HCT-15 colon = test system: HCT-15 colon
T-47D breast = test system: T-47D breast
A549 NSCLC = test system: A549 NSCLC
EKVX NSCLC = test system: EKVX NSCLC
HOP-62 NSCLC = test system: HOP-62 NSCLC

Row | SMILES | GI50 (MDA-MB-231 breast) | TGI (MDA-MB-231 breast) | GI50 (LOX IMVI melanoma) | TGI (LOX IMVI melanoma) | GI50 (SW-620 colon) | TGI (SW-620 colon) | GI50 (HCT-15 colon) | TGI (HCT-15 colon) | GI50 (T-47D breast) | TGI (T-47D breast) | GI50 (A549 NSCLC) | TGI (A549 NSCLC) | GI50 (EKVX NSCLC) | TGI (EKVX NSCLC) | TGI (HOP-62 NSCLC) | GI50 (HOP-62 NSCLC)
1 | Cn1cccc1-c1cc(-c2ccc(Br)cc2)nc(N)c1C#N | 69.9 µM | > 100 µM | > 100 µM | > 100 µM | > 100 µM | > 100 µM | > 100 µM | > 100 µM | > 100 µM | > 100 µM | > 100 µM | > 100 µM | > 100 µM | > 100 µM |  | 
2 | O=C(/C=N/O)c1c(-c2ccccc2)[nH]c(-c2ccccc2)c1-c1ccccc1 |  | 28.7 µM |  | 41.3 µM |  | 48.7 µM |  | 45.8 µM |  | > 100 µM |  | 45.2 µM |  | 19 µM | > 100 µM | 
3 | CC1=C(C)C(=O)C(C(C)C2=C(C)C(=O)C(C)=C(C)C2=O)=C(C)C1=O | 13.8 µM | 30.4 µM | 19 µM | > 100 µM | 15.7 µM | 29.8 µM | 15.2 µM | > 100 µM | 12.8 µM | 26.4 µM | 51 µM | > 100 µM | 32.6 µM | > 100 µM | > 100 µM | > 100 µM
4 | Cc1nc2cc(O)c(O)cc2cc1Oc1ccc(NC(=O)Nc2ccc(Cl)c(Cl)c2)cc1 | 2.49 µM | > 32.5 µM |  |  | 4.8 µM | > 32.5 µM | 5.47 µM | > 32.5 µM | 11.6 µM | > 32.5 µM | 8.99 µM | 26.2 µM |  |  | > 32.5 µM | 8.62 µM
5 | Cn1c(=O)c(F)c(Nc2ccc(I)cc2F)c2c(=O)n(C[C@@H](O)CO)cnc21 | 0.0442 µM and 0.0456 µM | 8.98 µM and > 1.99 µM | 0.0469 µM and 0.0198 µM | 12.5 µM and > 3.38 µM | < 0.01 µM and 0.00521 µM | > 64.1 µM | 1.9 µM and 0.873 µM | 43.2 µM and > 8.26 µM | 18.2 µM | > 96.5 µM | 0.234 µM and 0.11 µM | 58.7 µM and > 4.08 µM | 0.042 µM and 0.0485 µM | > 64.1 µM | > 69.7 µM | 0.0545 µM and 0.0151 µM
6 | CCOC(=O)C(=Cc1ccccc1Br)C(=O)OCC |  | 36.9 µM |  |  |  |  |  | 3.71 µM |  |  |  | > 100 µM |  | 17.3 µM | > 100 µM | 
7 | CC(C)[C@]12O[C@H]1[C@@H]1O[C@]13[C@]1(O[C@H]1C[C@H]1c4c(C(=O)c5ccccc5)oc(OC(=O)c5ccccc5)c4CC[C@@]13C)[C@@H]2O | 0.0463 µM | 43.7 µM | 0.0144 µM | 14.8 µM | 0.0179 µM | 3.89 µM | 0.0291 µM | > 100 µM | 0.0281 µM | 0.916 µM | 0.059 µM | > 62.4 µM | 0.0359 µM | 1.11 µM | 0.735 µM | 0.0278 µM
8 | CC(O)CN(CCN(CC(C)O)CC(C)O)CC(C)O.O=[N+]([O-])O.[Cu+2] (stereo unspecified) | > 100 µM | > 100 µM | > 100 µM | > 100 µM | > 100 µM | > 100 µM | > 100 µM | > 100 µM | > 100 µM | > 100 µM | 46.5 µM | > 100 µM | 67.3 µM | > 100 µM | > 100 µM | > 100 µM
9 | N#C/C(=C/N1CCN(C(=O)c2ccco2)C1=S)C(N)=O | 13.1 µM | 37 µM | 2.5 µM | 7.69 µM | 22.1 µM | 81.7 µM | 3.82 µM | > 100 µM | 9.32 µM | > 100 µM | 34.5 µM | > 100 µM | 0.342 µM | 0.982 µM | 66.9 µM | 25.6 µM
10 | NS(=O)(=O)c1ccc(-n2nc(-c3ccc(Cl)cc3)cc2C2=CC(=O)C=CC2=O)cc1 | 13.7 µM | 32 µM |  |  | 19.8 µM | 48.3 µM | 16.1 µM | 32.2 µM |  |  | 30 µM | > 100 µM | 28.4 µM | 91.1 µM |  | 
11 | CNCCNc1nc2ccccc2c2c(=O)c3cccc(OC)c3sc12 | 1.3 µM | 2.78 µM | 1.27 µM | 2.63 µM | 0.575 µM | 2.11 µM | 0.829 µM | 2.15 µM | 1.57 µM | 3.56 µM | 1.2 µM | 2.78 µM | 1.56 µM | 3.05 µM | 2.92 µM | 1.25 µM
12 | COC(=O)c1ccc2c(c1)nc(-c1ccc(Cl)cc1)n2-c1cc(C(C)(C)C)[nH]n1 | 4.62 µM | 27 µM | 3.7 µM | 14.5 µM | 3.24 µM | > 100 µM | 4.36 µM | > 100 µM | 3.64 µM | > 100 µM | 4.03 µM | 94.5 µM | 3.06 µM | > 100 µM | 21 µM | 3.41 µM
13 | COc1ccc(/C=C(/C(=O)N2CCNCC2)c2cc(OC)c(OC)c(OC)c2)cc1O | 4.41 µM | > 100 µM | 5.21 µM | > 100 µM | 3.69 µM | > 100 µM | 36.7 µM | > 100 µM | 6.71 µM | > 100 µM | 6.63 µM | > 100 µM | 6.43 µM | > 100 µM | > 100 µM | 5.08 µM
14 | CCOc1ccc2c(c1)/C(=C\C=C\C1CC(C)C3CC(OCC)CCC3N1CC)CC(C)N2CC (stereo unspecified) | 1.22 µM | 2.92 µM | 0.871 µM | 2.27 µM | 0.73 µM | 2.59 µM | 1.16 µM | 2.77 µM | 0.334 µM | 2.12 µM | 0.304 µM | 1.46 µM |  |  | 2.25 µM | 0.755 µM
15 | O=C1c2cc3c(cc2-c2c1c1ccc([N+](=O)[O-])cc1c(=O)n2CCCCl)OCO3 |  | > 24.9 µM | 0.0742 µM | > 100 µM | 0.263 µM | > 100 µM | 2.09 µM | > 100 µM |  | > 100 µM | 0.523 µM | > 100 µM | 6.13 µM | > 100 µM | > 100 µM | 0.383 µM
16 | O=[N+]([O-])c1ccc2[nH]cc(-c3c4ccccc4cc4[nH]c5ccc([N+](=O)[O-])cc5c34)c2c1 | 2.27 µM | 5.83 µM | 1.92 µM | 4.14 µM | 2.73 µM | 8.84 µM | 1.88 µM | 4.49 µM | 1.71 µM | 4.74 µM | 2.07 µM | 4.8 µM | 2.4 µM | 8.41 µM | 7.25 µM | 2.54 µM
